In patent publication US10294202B2, “Pyrrolidinones as herbicides” (FMC Corporation, priority 2013, dated 2019):

Assays:
[1] = system: barnyardgrass; assay: Test A pre-/postemergence herbicide test; assay type: in vivo, Echinochloa crus-galli
Outline: (§1)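 Planted in loam–sand blend; treated the same day preemergence by directed soil spray, while separately grown plants at one- to two-leaf stage got postemergence spray. Compared visually with untreated controls after approximately 10 days; 100 means complete control.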

[2] = system: kochia; assay: Test A pre-/postemergence herbicide test; assay type: in vivo, Kochia scoparia
Outline: as §1

[3] = system: ragweed; assay: Test A pre-/postemergence herbicide test; assay type: in vivo, Ambrosia elatior
Outline: as §1

[4] = system: ryegrass, Italian; assay: Test A pre-/postemergence herbicide test; assay type: in vivo, Lolium multiflorum
Outline: as §1

[5] = system: giant foxtail; assay: Test A pre-/postemergence herbicide test; assay type: in vivo, Setaria faberii
Outline: as §1

[6] = system: pigweed; assay: Test A pre-/postemergence herbicide test; assay type: in vivo, Amaranthus retroflexus
Outline: as §1

[7] = system: wheat; assay: Test A pre-/postemergence herbicide test; assay type: in vivo, Triticum aestivum; conditions: Postemergence
Outline: as §1

[8] = system: corn; assay: Test A pre-/postemergence herbicide test; assay type: in vivo, Zea mays; conditions: Postemergence
Outline: as §1

[9] = system: blackgrass; assay: Test A postemergence herbicide test; assay type: in vivo, Alopecurus myosuroides
Outline: (§2)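 Potted in loam soil/sand blend; postemergence application at 1–2 leaf stage (2–10 cm). Greenhouse ~10 d. Visual injury vs untreated, 0–100 scale; 100 = complete control.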

[10] = system: galium; assay: Test A postemergence herbicide test; assay type: in vivo, Galium aparine
Outline: as §2

[11] = system: rice; assay: Test B flooded paddy test; assay type: in vivo, Oryza sativa; conditions: 500 g ai/ha, Flood; scale of 0 to 100 where 0 is no effect and 100 is complete control
Outline: (§3)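 Scoring: visual, compared with untreated controls, 0 = no effect through 100 = complete control, taken 13 to 15 days after treatment in the greenhouse. Compounds had been added to paddy water over soil flooded 3 cm deep at the plants' 2-leaf stage.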

[12] = system: sedge, umbrella; assay: Test B flooded paddy test; assay type: in vivo, Cyperus difformis; conditions: 500 g ai/ha, Flood; scale of 0 to 100 where 0 is no effect and 100 is complete control
Outline: as §3

[13] = system: ducksalad; assay: Test B flooded paddy test; assay type: in vivo, Heteranthera limosa; conditions: 500 g ai/ha, Flood; scale of 0 to 100 where 0 is no effect and 100 is complete control
Outline: as §3

[14] = system: barnyardgrass; assay: Test B flooded paddy test; assay type: in vivo, Echinochloa crus-galli; conditions: 500 g ai/ha, Flood; scale of 0 to 100 where 0 is no effect and 100 is complete control
Outline: as §3

[15] = Postemergence, 125 g ai/ha, visual rating on 0 to 100 scale (0 no effect, 100 complete control), approx. 10 days
[16] = Postemergence, 500 g ai/ha, 0 to 100 scale (0 no effect, 100 complete control)
[17] = Preemergence, 125 g ai/ha, 0 to 100 scale where 0 is no effect and 100 is complete control
[18] = preemergence, 500 g ai/ha, 0 to 100 scale, 0 is no effect and 100 is complete control
[19] = Preemergence, 500 g ai/ha, visual rating on 0 to 100 scale (0 no effect, 100 complete control)
[20] = 125 g ai/ha, visual rating on 0 to 100 scale (0 no effect, 100 complete control), approx. 10 days
[21] = 500 g ai/ha, 0 to 100 scale (0 no effect, 100 complete control)

Structure (SMILES): CSc1cccc(C2CNC(=O)C2C(=O)Nc2ccccc2F)c1 (centres unmarked) [Compound 287]
- Plant response rating, Barnyardgrass [1, 15]: 50
- Plant response rating, Barnyardgrass [1, 16]: 80
- Plant response rating, Barnyardgrass [1, 17]: 50
- Plant response rating, Barnyardgrass [1, 18]: 80
- Plant response rating, Kochia [2, 15]: 0
- Plant response rating, Kochia [2, 16]: 0
- Plant response rating, Kochia [2, 17]: 0
- Plant response rating, Kochia [2, 18]: 0
- Plant response rating, Ragweed [3, 15]: 0
- Plant response rating, Ragweed [3, 16]: 0
- Plant response rating, Ragweed [3, 17]: 0
- Plant response rating, Ragweed [3, 18]: 0
- Plant response rating, Ryegrass, Italian [4, 15]: 0
- Plant response rating, Ryegrass, Italian [4, 16]: 0
- Plant response rating, Ryegrass, Italian [4, 17]: 0
- Ryegrass, Italian plant response rating [4, 19]: 0
- Plant response rating, Foxtail, Giant [5, 15]: 0
- Plant response rating, Foxtail, Giant [5, 16]: 0
- Plant response rating, Foxtail, Giant [5, 17]: 50
- Plant response rating, Foxtail, Giant [5, 18]: 80
- Plant response rating, Pigweed [6, 15]: 0
- Plant response rating, Pigweed [6, 16]: 0
- Plant response rating, Pigweed [6, 17]: 0
- Plant response rating, Pigweed [6, 18]: 0
- Plant response rating, Wheat [7, 20]: 0
- Plant response rating, Wheat [7, 21]: 0
- Plant response rating, Corn [8, 20]: 0
- Plant response rating, Corn [8, 21]: 0
- Plant response rating, Blackgrass [9, 20]: 0
- Plant response rating, Blackgrass [9, 21]: 0
- Plant response rating, Galium [10, 20]: 0
- Plant response rating, Galium [10, 21]: 0
- Plant response rating, Rice [11]: 0
- Plant response rating, Sedge, Umbrella [12]: 0
- Plant response rating, Ducksalad [13]: 75
- Plant response rating, Barnyardgrass [14]: 30

Structure (SMILES): CSc1cccc(C2CNC(=O)C2C(=O)Nc2cccc(F)c2F)c1 (centres unmarked) [Compound 289]
- Plant response rating, Barnyardgrass [1, 15]: 50
- Plant response rating, Barnyardgrass [1, 16]: 70
- Plant response rating, Barnyardgrass [1, 17]: 50
- Plant response rating, Barnyardgrass [1, 18]: 80
- Plant response rating, Kochia [2, 15]: 0
- Plant response rating, Kochia [2, 16]: 0
- Plant response rating, Kochia [2, 17]: 0
- Plant response rating, Kochia [2, 18]: 0
- Plant response rating, Ragweed [3, 15]: 0
- Plant response rating, Ragweed [3, 16]: 0
- Plant response rating, Ragweed [3, 17]: 0
- Plant response rating, Ragweed [3, 18]: 0
- Plant response rating, Ryegrass, Italian [4, 15]: 0
- Plant response rating, Ryegrass, Italian [4, 16]: 0
- Plant response rating, Ryegrass, Italian [4, 17]: 0
- Ryegrass, Italian plant response rating [4, 19]: 0
- Plant response rating, Foxtail, Giant [5, 15]: 30
- Plant response rating, Foxtail, Giant [5, 16]: 60
- Plant response rating, Foxtail, Giant [5, 17]: 60
- Plant response rating, Foxtail, Giant [5, 18]: 90
- Plant response rating, Pigweed [6, 15]: 0
- Plant response rating, Pigweed [6, 16]: 0
- Plant response rating, Pigweed [6, 18]: 0
- Plant response rating, Wheat [7, 20]: 0
- Plant response rating, Wheat [7, 21]: 0
- Plant response rating, Corn [8, 20]: 0
- Plant response rating, Corn [8, 21]: 0
- Plant response rating, Blackgrass [9, 20]: 0
- Plant response rating, Blackgrass [9, 21]: 0
- Plant response rating, Galium [10, 20]: 0
- Plant response rating, Galium [10, 21]: 0
- Plant response rating, Rice [11]: 20
- Plant response rating, Sedge, Umbrella [12]: 0
- Plant response rating, Ducksalad [13]: 90
- Plant response rating, Barnyardgrass [14]: 30

Structure (SMILES): CSc1cccc(C2CNC(=O)C2C(=O)Nc2ccc(F)c(F)c2F)c1 (centres unmarked) [Compound 290]
- Plant response rating, Barnyardgrass [1, 15]: 50
- Plant response rating, Barnyardgrass [1, 16]: 80
- Plant response rating, Barnyardgrass [1, 17]: 60
- Plant response rating, Barnyardgrass [1, 18]: 80
- Plant response rating, Kochia [2, 15]: 0
- Plant response rating, Kochia [2, 16]: 0
- Plant response rating, Kochia [2, 17]: 0
- Plant response rating, Kochia [2, 18]: 0
- Plant response rating, Ragweed [3, 15]: 0
- Plant response rating, Ragweed [3, 16]: 0
- Plant response rating, Ragweed [3, 17]: 0
- Plant response rating, Ragweed [3, 18]: 0
- Plant response rating, Ryegrass, Italian [4, 15]: 0
- Plant response rating, Ryegrass, Italian [4, 16]: 0
- Plant response rating, Ryegrass, Italian [4, 17]: 0
- Ryegrass, Italian plant response rating [4, 19]: 0
- Plant response rating, Foxtail, Giant [5, 15]: 30
- Plant response rating, Foxtail, Giant [5, 16]: 60
- Plant response rating, Foxtail, Giant [5, 17]: 60
- Plant response rating, Foxtail, Giant [5, 18]: 80
- Plant response rating, Pigweed [6, 15]: 0
- Plant response rating, Pigweed [6, 16]: 10
- Plant response rating, Pigweed [6, 17]: 0
- Plant response rating, Pigweed [6, 18]: 0
- Plant response rating, Wheat [7, 20]: 0
- Plant response rating, Wheat [7, 21]: 0
- Plant response rating, Corn [8, 20]: 0
- Plant response rating, Corn [8, 21]: 0
- Plant response rating, Blackgrass [9, 20]: 0
- Plant response rating, Blackgrass [9, 21]: 0
- Plant response rating, Galium [10, 20]: 0
- Plant response rating, Galium [10, 21]: 0
- Plant response rating, Rice [11]: 0
- Plant response rating, Sedge, Umbrella [12]: 0
- Plant response rating, Ducksalad [13]: 75
- Plant response rating, Barnyardgrass [14]: 40

Structure (SMILES): CSc1cccc(C2CNC(=O)C2C(=O)Nc2ccccc2Cl)c1 (centres unmarked) [Compound 291]
- Plant response rating, Barnyardgrass [1, 15]: 40
- Plant response rating, Barnyardgrass [1, 16]: 60
- Plant response rating, Barnyardgrass [1, 17]: 20
- Plant response rating, Barnyardgrass [1, 18]: 60
- Plant response rating, Kochia [2, 15]: 0
- Plant response rating, Kochia [2, 16]: 0
- Plant response rating, Kochia [2, 17]: 20
- Plant response rating, Kochia [2, 18]: 20
- Plant response rating, Ragweed [3, 15]: 0
- Plant response rating, Ragweed [3, 16]: 0
- Plant response rating, Ragweed [3, 17]: 0
- Plant response rating, Ragweed [3, 18]: 0
- Plant response rating, Ryegrass, Italian [4, 15]: 0
- Plant response rating, Ryegrass, Italian [4, 16]: 0
- Plant response rating, Ryegrass, Italian [4, 17]: 0
- Ryegrass, Italian plant response rating [4, 19]: 30
- Plant response rating, Foxtail, Giant [5, 15]: 20
- Plant response rating, Foxtail, Giant [5, 16]: 50
- Plant response rating, Foxtail, Giant [5, 17]: 20
- Plant response rating, Foxtail, Giant [5, 18]: 80
- Plant response rating, Pigweed [6, 15]: 0
- Plant response rating, Pigweed [6, 16]: 0
- Plant response rating, Pigweed [6, 17]: 0
- Plant response rating, Pigweed [6, 18]: 0
- Plant response rating, Wheat [7, 20]: 0
- Plant response rating, Wheat [7, 21]: 0
- Plant response rating, Corn [8, 20]: 0
- Plant response rating, Corn [8, 21]: 0
- Plant response rating, Blackgrass [9, 20]: 0
- Plant response rating, Blackgrass [9, 21]: 0
- Plant response rating, Galium [10, 20]: 20
- Plant response rating, Galium [10, 21]: 0
- Plant response rating, Rice [11]: 20
- Plant response rating, Sedge, Umbrella [12]: 0
- Plant response rating, Ducksalad [13]: 0
- Plant response rating, Barnyardgrass [14]: 0

Structure (SMILES): O=C1NCC(c2ccc(Cl)s2)C1C(=O)Nc1ccccc1F (centres unmarked) [Compound 292]
- Plant response rating, Barnyardgrass [1, 15]: 50
- Plant response rating, Barnyardgrass [1, 16]: 70
- Plant response rating, Barnyardgrass [1, 17]: 70
- Plant response rating, Barnyardgrass [1, 18]: 80
- Plant response rating, Kochia [2, 15]: 0
- Plant response rating, Kochia [2, 16]: 0
- Plant response rating, Kochia [2, 17]: 30
- Plant response rating, Kochia [2, 18]: 80
- Plant response rating, Ragweed [3, 15]: 0
- Plant response rating, Ragweed [3, 16]: 0
- Plant response rating, Ragweed [3, 17]: 0
- Plant response rating, Ragweed [3, 18]: 0
- Plant response rating, Ryegrass, Italian [4, 15]: 0
- Plant response rating, Ryegrass, Italian [4, 16]: 0
- Plant response rating, Ryegrass, Italian [4, 17]: 0
- Ryegrass, Italian plant response rating [4, 19]: 0
- Plant response rating, Foxtail, Giant [5, 15]: 50
- Plant response rating, Foxtail, Giant [5, 16]: 60
- Plant response rating, Foxtail, Giant [5, 17]: 50
- Plant response rating, Foxtail, Giant [5, 18]: 60
- Plant response rating, Pigweed [6, 15]: 0
- Plant response rating, Pigweed [6, 16]: 0
- Plant response rating, Pigweed [6, 17]: 0
- Plant response rating, Pigweed [6, 18]: 0
- Plant response rating, Wheat [7, 20]: 0
- Plant response rating, Wheat [7, 21]: 0
- Plant response rating, Corn [8, 20]: 0
- Plant response rating, Corn [8, 21]: 0
- Plant response rating, Blackgrass [9, 20]: 0
- Plant response rating, Blackgrass [9, 21]: 0
- Plant response rating, Galium [10, 20]: 10
- Plant response rating, Galium [10, 21]: 20
- Plant response rating, Rice [11]: 0
- Plant response rating, Sedge, Umbrella [12]: 0
- Plant response rating, Ducksalad [13]: 100
- Plant response rating, Barnyardgrass [14]: 50
